The nature of series [1]: Thermogravimetric analysis (TG) in the air. Particulars: for Decomp. Start.: Table 1. The format is physicochemical.
A short description of series [2]: Electron-emitting characteristics of device measured with measurement evaluation apparatus. The settings on record: Table 1. The source says: FIG. 4 is a schematic block diagram of an arrangement comprising a vacuum chamber that can be used as a measuring system for determining the performance of an electron-emitting device of the type under consideration.
Referring to FIG. 4, those components that are similar to or same as those of FIGS. 1A and 1B are denoted by the same reference symbols. The measuring system includes a vacuum chamber 45 and a vacuum pump 46. An electron-emitting device is placed in the vacuum chamber 45. The device comprises a substrate 1, a pair of device electrodes 2 and 3, an electroconductive thin film 4 and an electron-emitting region 5. Otherwise, the measuring system has a power source 41 for applying a device voltage Vf to the device, an ammeter 40 for metering the device current If running through the thin film 4 between the device electrodes 2 and 3, an anode 44 for capturing the emission current Ie produced by electrons emitted from the electron-emitting region of the device, a high voltage source 43 for applying a voltage to the anode 44 of the measuring system and another ammeter 42 for metering the emission current Ie produced by electrons emitted from the electron-emitting region 5 of the device. For determining the performance of the electron-emitting device, a voltage between 1 and 10 KV may be applied to the anode, which is spaced apart from the electron emitting device by distance H which is between 2 and 8 mm.
The electron-emitting characteristics of the electron-emitting device formed as described above were evaluated by using the measurement evaluation apparatus in FIG. 4. Note that, in this example, the distance between an anode and the electron-emitting device was set to be 4 mm, and the potential of the anode was set to be 1 kV. The degree of vacuum in the vacuum apparatus in measurement of the electron-emitting characteristics was 10^-8 torr.
The measurement evaluation apparatus described above was used, and a device voltage was applied across the electrodes 2 and 3 of the electron-emittingdevice. When a device current If and an emission current Ie flowing at this time were measured, current-voltage characteristics shown in FIG. 5 were obtained. In this device, the emission current Ie began to increase from a device voltage of about 6.3 V, and the device current If became 1.9 mA at the device voltage of 14 V. At this time, the emission current Ie of 0.7 μA was obtained.
The electron-emitting characteristics of the device manufactured as described above were measured. FIG. 4 is a schematic view showing the arrangement of a measurement evaluation apparatus. Reference numerals in FIG. 4 follow the reference numerals in the above examples. Note that, in this example, the distance between an anode and the electron-emitting device was set to be 4 mm, the potential of the anode was set to be 1 KV, and the degree of vacuum in a vacuum apparatus in measurement of the electron-emitting characteristics was set to be 10^-6 torr.
The measurement evaluation apparatus described above was used, and a device voltage was applied across the electrodes 2 and 3 of the electron-emittingdevice. When a device current If and an emission current Ie flowing at this time were measured, current-voltage characteristics shown in FIG. 5 were obtained. In the device in this example, the emission current Ie begun to sharply increase from a device voltage of about 8 V, the device current If and the emission current Ie respectively became 2.3 mA and 1.2 μA at the device voltage of 16 V, and electron-emitting efficiency .eta.=Ie/If (%) was 0.05%.
Note that, in this example, the distance between an anode and the electron-emitting device was set to be 4 mm, the potential of the anode was set to be 1 KV, and the degree of vacuum in a vacuum apparatus in measurement of the electron-emitting characteristics was set to be 10^-7 torr. […]

For series [3] the following is noted: water.
For series [4] the following is noted: X-ray diffraction.
For series [5] the following is noted: scanning type differential thermal analysis in the air.

Consider “nickel acetate-bis(N-butylethanolamine) [NABE]”, for which the “temperature at which decomposition ended” value in series [1] (TG in the air) was 395 °C.
As for `CC(=O)[O-].CC(=O)[O-].CNCCO.CNCCO.[Ni+2]` [NANME, nickel acetate-bis(N-methylethanolamine)], the “temperature at which decomposition ended” value in series [1] (TG in the air) came out at 379 °C.
`CC(=O)[O-].CC(=O)[O-].CCNCCO.CCNCCO.[Pd+2]` [Ex. 23]: the “Decomp. Start.” value in series [1] came to 153 °C. In series [2], this compound showed an Ie of 1.1 mA, an Ie/If of 0.042% and an If of 2.6 mA. This compound also gave a Solubility in series [3] of 8.4 Pdwt %.
Turning to `CC(=O)[O-].CC(=O)[O-].CNCCO.CNCCO.[Pd+2]` [Ex. 22], the “Decomp. Start.” value in series [1] was found to be 155 °C. In series [2], the Ie worked out at 1.3 mA, the Ie/If worked out at 0.045% and the If amounted to 2.9 mA. Moreover, the Solubility in series [3] was found to be 16.0 Pdwt %.
As to “palladium acetate bis(dipropylamine) [reference compound]”, in series [1] (TG in the atmosphere), the “palladium lost in thermal decomposition” value was found to be 29%, the “weight reduction end temperature” value was 250 °C and the “weight reduction start temperature” value was found to be 122 °C. The “residue weight at 350° C. relative to theoretical weight” value in series [1] (TG in the atmosphere, 350° C.) stood at 71%.
Regarding “palladium acetate-bis(N,N-dibutylethanolamine) [PADBE]”, the “temperature at which decomposition ended” value in series [1] (TG in the air) turned out to be 253 °C.
Same read-out and setting: the value for `CC(=O)[O-].CC(=O)[O-].NCCCO.NCCCO.[Ni+2]` [NAMP, nickel acetate-bis(3-amino-propanol)] was 393 °C; that for `CC(=O)[O-].CC(=O)[O-].CC(O)CN.CC(O)CN.[Ni+2]` (centres unmarked) [NAMiP, nickel acetate-bis(1-amino-2-propanol)] was 406 °C.
On the same count and under the same terms, the value for “palladium acetate-di(N-butylethanolamine) [PABE]” was 245 °C.
Consider `CC(=O)[O-].CC(=O)[O-].NCCCCO.NCCCCO.NCCCCO.NCCCCO.[Pd+2]` [Ex. 20], for which the “Decomp. Start.” value in series [1] stood at 186 °C. In series [2], this compound showed an Ie/If of 0.052% and an If of 2.3 mA. This compound registered a Solubility in series [3] of 10.5 Pdwt %.
As for `CC(=O)[O-].CC(=O)[O-].CCCNCCO.CCCNCCO.[Pd+2]` [Ex. 24], in series [1], the “Decomp. Start.” value worked out at 154 °C. Besides, in series [2], the Ie is 1.0 mA, the Ie/If is on record as 0.038% and the If turned out to be 2.6 mA. Moreover, the Solubility in series [3] is 4.0 Pdwt %.
Turning to `CC(=O)[O-].CC(=O)[O-].NCCO.NCCO.NCCO.NCCO.[Pd+2]` [PA-ME, palladium acetate-monoethanolamine complex], in series [1] (TG in the air), the decomposition start temperature is 100 °C, the sublimation properties result was “no sublimation properties” and the “temperature at which decomposition ended” value came to 310 °C. In addition, the “residue weight at 350° C., in words” value in series [1] (TG in the air, 350° C.) is “equal to a theoretical weight”. The “crystallinity of dried thin film” value in series [4] was “non-crystallized”. Besides, the decomposition temperature in series [5] worked out at 272 °C.
For the compound `CC(=O)[O-].CC(=O)[O-].CC(C)NCCO.CC(C)NCCO.[Pd+2]` [Ex. 25], in series [1], the “Decomp. Start.” value was determined as 155 °C. In series [2], this compound returned an Ie of 1.1 mA, an Ie/If of 0.039% and an If of 2.8 mA. The compound also showed a Solubility in series [3] of 3.7 Pdwt %.
For “palladium acetate-diethanolamine complex [PA-DE]”, in series [1] (TG in the air), the decomposition start temperature was determined as 100 °C, the sublimation properties result was “no sublimation properties” and the “temperature at which decomposition ended” value worked out at 305 °C.
As for `CC(=O)[O-].CC(=O)[O-].NCCCO.NCCCO.NCCCO.NCCCO.[Pd+2]` [Ex. 19], in series [1], the “Decomp. Start.” value stood at 173 °C. Also, in series [2], the Ie was found to be 1.1 mA, the Ie/If amounted to 0.041% and the If is recorded as 2.7 mA.
Regarding `CC(=O)[O-].CC(=O)[O-].CC(C)(C)NCCO.CC(C)(C)NCCO.[Pd+2]` [Ex. 26], the “Decomp. Start.” value in series [1] stood at 166 °C. Moreover, in series [2], the Ie is recorded as 1.0 mA, the Ie/If came to 0.040% and the If was found to be 2.5 mA. In series [3], this compound registered a Solubility of 0.7 Pdwt %.
On to `NCCO.NCCO.NCCO.O.O.O=C[O-].O=C[O-].[Ni+2]` [NFME, nickel formate-tris(ethanolamine)-2-hydrate], for which the “temperature at which decomposition ended” value in series [1] (TG in the air) came to 403 °C.

The values are drawn from patent publication US6270389A, “Method for forming an electron-emitting device using a metal-containing composition” (priority 1995, dated 2001).
